Earlier results, collected in US12037623B2, “Enzymatic synthesis of 4′-ethynyl nucleoside analogs” (priority 2018, dated 2024).

Experiments:
[1] = pbmc
[2] = tested on: HIV
[3] = oral; mouse and rhesus monkey
[4] = tested on: SIV; conditions: PBMC from rhesus macaque, 24 hr after drug administration
[5] = tested on: HIV infection; conditions: humanized mouse models and SIV infected rhesus macaque model

| Compound | intracellular half-life [1] | antiviral activity against clinical isolates ([2]; clinical isolates across all subtypes that have been evaluated) | antiretroviral activity ([2]; in-vitro HIV replication assays) | absorption [3] | plasma concentrations [3] | susceptibility of isolated PBMC to SIV infection [4] | efficacy in animal models of HIV infection [5] |
| --- | --- | --- | --- | --- | --- | --- | --- |
| C#C[C@]1(COP(=O)(O)OP(=O)(O)OP(=O)(O)O)O[C@@H](n2cnc3c(N)nc(F)nc32)C[C@@H]1O [EFdA-TP, EFdA Triphosphate] | exceeds 72 hrs |  |  |  |  |  |  |
| C#C[C@]1(CO)O[C@@H](n2cnc3c(N)nc(F)nc32)C[C@@H]1O [EFdA, 4′-ethynyl-2-fluoro-2′-deoxyadenosine] |  | comparable antiviral activity | potent antiretroviral | rapid absorption | high plasma concentrations | refractory to SIV infection | efficacy |
